Measurements as given in ChEMBL document CHEMBL1201862, “PubChem BioAssay data set” (2004).
The source made the active and inactive calls. Cut-off read from the data, not from the text of the source, for most assays here: actives have a measured EC50 and inactives only a lower limit.

Columns and labels:
[1] = inhibitors of firefly luciferase expression or activity, dose response, H4 neuroglioma cells, luminescence (AID 1990); type: functional, cell-based
[2] = luciferase reporter signal reduction – luminescence, H4-C neuroglioblastoma cells, dose response (AID 2458); type: functional, cell-based;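 note: H4 neuroglioblastoma cells stably carrying a luciferase reporter gene fusion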
BJ [3] = test: cytotoxicity toward BJ-TERT fibroblasts, dose response, cell-based, RAS-independent, luminescence (AID 1933); type: functional; settings: Homo sapiens
cells = type: functional, cell-based
[4] = Luminescence Cell-Based Dose Response HTS to Identify Inhibitors of 5'UTR Stem-Loop Driven Prion Protein mRNA Translation in H4 Neuroglioblastoma Cells. [Related pubchem assays: 1827 (Project Summary), 1813 (Primary HTS)]; type: functional
Vero [5] = test: host cell cytotoxicity of antiviral hits, dose response, cytotoxicity control for West Nile virus antiviral project, secondary assay (AID 1650); type: functional; settings: Chlorocebus sabaeus
[6] = inhibitors of SNCA 5'UTR-driven reporter translation, confirmation, H4 neuroglioma cells, luminescence (AID 1988); type: functional, cell-based
BJ [7] = test: cells; type: functional, cell-based; settings: Homo sapiens
[8] = Luminescence-based counterscreen assay for KLF5 inhibitors: dose response cell-based high throughput screening assay to identify cytotoxic compounds using the IEC-6 intestinal epithelial cell line. [Related pubchem assays: 1700 (Primary screen.), 1834 (Confirmation screen.), 1858 (Summary AID.), 1905 (Counterscreen.)]; type: functional
BJ [9] = test: cytotoxicity toward BJ-TERT-LT-ST fibroblasts, dose response, cell-based, RAS-independent, luminescence (AID 1935); type: functional; settings: Homo sapiens;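 note: BJ fibroblasts immortalized with TERT plus LT and ST oncogenes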
[10] = cytotoxicity toward DRD oncogenic fibroblasts, dose response, cell-based, non-viral oncogenic, luminescence (AID 1934); type: functional; settings: Homo sapiens
[11] = inhibitors of SNCA 5'UTR-driven translation, confirmation, luminescence, H4 neuroglioblastoma cells, dose confirmation (AID 2454); type: functional, cell-based;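 note: H4 neuroglioblastoma cells carrying an alpha-synuclein 5'UTR luciferase reporter; potency for inhibition of the luciferase signal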
[12] = cytotoxicity in HEK-293T cells, dose response, cytotoxicity control for TCR NF-kB inhibitor project, luminescence, T-cell screen hits (AID 489026); type: functional, cell-based;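 note: cells exposed to compound about 14 hours before the viability readout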
Vero [13] = test: cells; type: functional, cell-based; settings: Chlorocebus sabaeus
BJ [14] = test: cytotoxicity toward Ras-transformed BJeLR fibroblasts, dose response, cell-based, alamar blue fluorescence, cherrypicked samples (AID 2631); type: functional; settings: Homo sapiens;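 note: confirmatory dose-response assay in RAS-dependent BJ fibroblasts engineered with TERT, LT and ST, with cytotoxicity read by fluorescence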
Vero [15] = test: cells; type: functional; settings: Chlorocebus sabaeus
Paired box protein Pax-8 = Paired box protein Pax-8 (Homo sapiens, UniProt Q06710); test: inhibitors of PAX8-driven TPO luciferase reporter, dose response, RMG-I cells, cherry-pick (AID 687027); type: functional, cell-based;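 note: luciferase reporter driven by Pax8 target thyroperoxidase promoter measured by SteadyGlo luminescence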
Sequence of Paired box protein Pax-8 (Q06710 whole entry): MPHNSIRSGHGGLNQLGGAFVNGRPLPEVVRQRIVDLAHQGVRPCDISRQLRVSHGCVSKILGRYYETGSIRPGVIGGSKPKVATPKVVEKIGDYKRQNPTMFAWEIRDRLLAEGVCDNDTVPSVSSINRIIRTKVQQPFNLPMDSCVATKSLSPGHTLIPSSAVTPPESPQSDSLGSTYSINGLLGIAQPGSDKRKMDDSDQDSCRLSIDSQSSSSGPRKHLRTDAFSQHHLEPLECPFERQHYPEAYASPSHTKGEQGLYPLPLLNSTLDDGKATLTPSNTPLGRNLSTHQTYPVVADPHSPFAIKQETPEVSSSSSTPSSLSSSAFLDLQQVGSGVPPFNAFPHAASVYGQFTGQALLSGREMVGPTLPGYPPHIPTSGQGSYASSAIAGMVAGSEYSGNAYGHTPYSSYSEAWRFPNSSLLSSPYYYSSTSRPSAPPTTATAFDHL

[16] = non-specific cell cytotoxicity, dose response, cytotoxicity control for PAX8 inhibitor project, plate reader, dry powder samples (AID 743021); type: functional, cell-based
Leucine aminopeptidase = biological target: T1, Leucine aminopeptidase (Plasmodium falciparum 3D7, UniProt Q8IL11); test: P. falciparum M17LAP inhibitors, primary screen, biochemical, fluorogenic H-Leu-NHMec substrate, 1536-well (AID 1619); type: functional
T1 sequence (Q8IL11 whole entry): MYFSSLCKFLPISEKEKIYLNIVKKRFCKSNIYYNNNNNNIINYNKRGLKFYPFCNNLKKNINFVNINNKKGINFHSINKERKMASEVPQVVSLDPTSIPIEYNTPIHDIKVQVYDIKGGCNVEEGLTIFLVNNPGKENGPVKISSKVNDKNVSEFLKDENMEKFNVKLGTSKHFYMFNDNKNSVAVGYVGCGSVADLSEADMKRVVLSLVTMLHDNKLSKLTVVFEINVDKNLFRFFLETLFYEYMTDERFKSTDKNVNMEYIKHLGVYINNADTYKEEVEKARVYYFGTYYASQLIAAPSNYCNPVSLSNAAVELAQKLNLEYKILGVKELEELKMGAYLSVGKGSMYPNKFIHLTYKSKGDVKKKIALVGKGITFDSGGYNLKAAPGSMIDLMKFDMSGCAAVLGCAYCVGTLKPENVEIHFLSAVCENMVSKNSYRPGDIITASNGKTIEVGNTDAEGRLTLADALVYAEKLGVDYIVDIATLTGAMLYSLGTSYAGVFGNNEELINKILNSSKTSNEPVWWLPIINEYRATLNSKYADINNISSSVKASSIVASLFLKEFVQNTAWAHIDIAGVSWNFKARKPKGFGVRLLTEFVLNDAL

[17] = system: Streptococcus sp. 'group A'; test: growth inhibition of control SK(-) GAS strain, dose response, counter-screen for streptokinase expression inhibitor project, luminescence, kanamycin, BacTiterGlo, confirmation (AID 1900); type: functional, organism-based
Streptococcus [18] = test: Luminescence Microorganism-Based Dose Response Follow up to Identify Compounds Cytotoxic to Streptococcus. [Related pubchem assays: 1677 (Project Summary), 1915, 1914, 1902 (Retest at Dose), 1900 (Counter Screen), 1662 (Primary HTS)]; type: functional, organism-based
Streptokinase A = biological target: T2, Streptokinase A (Streptococcus pyogenes serotype M1, UniProt P10520); test: S. pyogenes streptokinase expression inhibitors, potency, dose response, plasminogen activation absorbance, OD405 (AID 1914); type: functional, Streptococcus pyogenes M1 GAS;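 note: secreted streptokinase activity via plasminogen activation per viability signal from cell pellet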
T2 sequence (P10520 whole entry): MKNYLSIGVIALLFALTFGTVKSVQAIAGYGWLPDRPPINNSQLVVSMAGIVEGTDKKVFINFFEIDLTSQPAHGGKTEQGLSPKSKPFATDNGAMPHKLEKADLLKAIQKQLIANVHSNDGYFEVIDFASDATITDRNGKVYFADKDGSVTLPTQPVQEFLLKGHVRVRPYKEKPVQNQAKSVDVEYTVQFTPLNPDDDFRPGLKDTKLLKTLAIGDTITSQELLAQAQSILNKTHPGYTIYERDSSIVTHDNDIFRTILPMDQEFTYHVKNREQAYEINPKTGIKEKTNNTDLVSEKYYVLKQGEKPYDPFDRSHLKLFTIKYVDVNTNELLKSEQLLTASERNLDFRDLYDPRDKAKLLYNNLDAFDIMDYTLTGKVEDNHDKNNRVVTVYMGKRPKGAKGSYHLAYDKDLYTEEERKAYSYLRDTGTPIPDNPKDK

Streptococcus [19] = test: Group A Streptococcus viability loss, dose response, counter-screen for streptokinase expression inhibitor project, luminescence, BacTiterGlo (AID 1915); type: functional, organism-based;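 note: potency for reduction of bacterial viability or growth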
[20] = biological target: T3, RNA-binding protein pos-1 (Caenorhabditis elegans, UniProt G5EF15); test: inhibitors of POS-1/mex-3 RNA binding, dose response, biochemical, fluorescence polarization (AID 1964);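 note: purified POS-1 fused to maltose binding protein made in E. coli; potency of compounds blocking POS-1 binding to fluorescent RNA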
T3 sequence (G5EF15 whole entry): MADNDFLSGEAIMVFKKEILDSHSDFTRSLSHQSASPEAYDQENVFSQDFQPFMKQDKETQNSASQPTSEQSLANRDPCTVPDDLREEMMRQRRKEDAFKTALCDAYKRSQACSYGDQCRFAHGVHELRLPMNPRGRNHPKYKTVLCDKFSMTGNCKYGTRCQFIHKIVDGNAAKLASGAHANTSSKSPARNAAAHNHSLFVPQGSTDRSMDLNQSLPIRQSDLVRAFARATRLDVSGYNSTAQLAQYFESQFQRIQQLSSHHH

[21] = biological target: T4, Zinc finger protein mex-5 (Caenorhabditis elegans, UniProt Q9XUB2); test: MEX-5/TCR-2 RNA interaction inhibitors, dose response, biochemical, C. elegans, fluorescence polarization (AID 1960)
T4 sequence (Q9XUB2 whole entry): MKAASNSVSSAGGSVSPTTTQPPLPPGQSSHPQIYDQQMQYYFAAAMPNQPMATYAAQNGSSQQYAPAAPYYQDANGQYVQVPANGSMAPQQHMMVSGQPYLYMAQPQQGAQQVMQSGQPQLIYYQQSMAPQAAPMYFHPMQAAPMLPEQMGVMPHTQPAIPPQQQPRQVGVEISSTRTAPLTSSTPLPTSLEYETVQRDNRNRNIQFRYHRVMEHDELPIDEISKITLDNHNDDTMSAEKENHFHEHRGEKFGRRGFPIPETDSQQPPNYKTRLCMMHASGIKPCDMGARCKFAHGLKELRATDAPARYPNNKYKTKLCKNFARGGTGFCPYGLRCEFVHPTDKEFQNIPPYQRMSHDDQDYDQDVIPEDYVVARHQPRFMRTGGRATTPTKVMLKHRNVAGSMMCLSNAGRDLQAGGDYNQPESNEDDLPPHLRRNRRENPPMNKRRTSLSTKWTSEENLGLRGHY

Estrogen receptor = biological target: T5, Estrogen receptor (Homo sapiens, UniProt P03372);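 note: potency for inhibiting coactivator peptide recruitment to the receptor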
T5 sequence (P03372 whole entry): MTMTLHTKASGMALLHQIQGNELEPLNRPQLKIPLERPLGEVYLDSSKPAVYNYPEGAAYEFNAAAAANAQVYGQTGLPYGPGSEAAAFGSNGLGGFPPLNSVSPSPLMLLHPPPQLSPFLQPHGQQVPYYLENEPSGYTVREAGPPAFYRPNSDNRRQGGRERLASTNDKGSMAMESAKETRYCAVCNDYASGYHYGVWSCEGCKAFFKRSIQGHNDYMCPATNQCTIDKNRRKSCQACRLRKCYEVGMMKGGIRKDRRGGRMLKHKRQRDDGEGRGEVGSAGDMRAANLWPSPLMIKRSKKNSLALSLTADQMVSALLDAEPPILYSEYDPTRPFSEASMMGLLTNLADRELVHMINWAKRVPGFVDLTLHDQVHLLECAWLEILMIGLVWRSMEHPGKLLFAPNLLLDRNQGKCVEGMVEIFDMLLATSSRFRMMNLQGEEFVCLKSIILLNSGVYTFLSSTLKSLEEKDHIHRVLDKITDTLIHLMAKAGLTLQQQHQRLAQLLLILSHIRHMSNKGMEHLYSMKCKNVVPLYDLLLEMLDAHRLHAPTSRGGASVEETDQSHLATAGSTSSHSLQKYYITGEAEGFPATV

NS3 = NS3 (Hepatitis C virus, UniProt A3EZJ3); test: PubChem AID 2173; parameters: species or system Hepacivirus hominis
Sequence of NS3 (A3EZJ3 whole entry): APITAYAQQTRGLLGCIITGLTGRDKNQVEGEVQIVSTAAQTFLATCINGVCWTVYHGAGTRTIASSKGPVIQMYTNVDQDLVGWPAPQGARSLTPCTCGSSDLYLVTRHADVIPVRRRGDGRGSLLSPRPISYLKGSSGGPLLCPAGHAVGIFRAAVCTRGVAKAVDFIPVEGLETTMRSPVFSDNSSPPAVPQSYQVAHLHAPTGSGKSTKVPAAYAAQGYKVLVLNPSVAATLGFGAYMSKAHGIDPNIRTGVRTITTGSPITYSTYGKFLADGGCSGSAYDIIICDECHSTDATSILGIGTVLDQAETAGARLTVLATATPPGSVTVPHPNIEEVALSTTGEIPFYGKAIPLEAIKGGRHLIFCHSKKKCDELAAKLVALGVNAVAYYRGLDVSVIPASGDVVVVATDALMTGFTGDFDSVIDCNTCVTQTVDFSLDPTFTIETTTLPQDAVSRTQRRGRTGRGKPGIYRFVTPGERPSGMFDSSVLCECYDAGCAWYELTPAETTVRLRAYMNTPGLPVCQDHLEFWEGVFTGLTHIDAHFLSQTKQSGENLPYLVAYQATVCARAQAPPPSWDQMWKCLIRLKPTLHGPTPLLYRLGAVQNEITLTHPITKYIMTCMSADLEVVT

[22] = biological target: T6, Polyadenylate-binding protein 1 (Homo sapiens, UniProt P11940); test: PABP1 MLLE–PAM2 interaction inhibitors, dose response, miRNA deadenylation inhibitor project, biochemical, fluorescence polarization, Cy5-PAM2 peptide, secondary (AID 602260); type: functional; settings: read-out: IC50_Mean
T6 sequence (P11940 whole entry): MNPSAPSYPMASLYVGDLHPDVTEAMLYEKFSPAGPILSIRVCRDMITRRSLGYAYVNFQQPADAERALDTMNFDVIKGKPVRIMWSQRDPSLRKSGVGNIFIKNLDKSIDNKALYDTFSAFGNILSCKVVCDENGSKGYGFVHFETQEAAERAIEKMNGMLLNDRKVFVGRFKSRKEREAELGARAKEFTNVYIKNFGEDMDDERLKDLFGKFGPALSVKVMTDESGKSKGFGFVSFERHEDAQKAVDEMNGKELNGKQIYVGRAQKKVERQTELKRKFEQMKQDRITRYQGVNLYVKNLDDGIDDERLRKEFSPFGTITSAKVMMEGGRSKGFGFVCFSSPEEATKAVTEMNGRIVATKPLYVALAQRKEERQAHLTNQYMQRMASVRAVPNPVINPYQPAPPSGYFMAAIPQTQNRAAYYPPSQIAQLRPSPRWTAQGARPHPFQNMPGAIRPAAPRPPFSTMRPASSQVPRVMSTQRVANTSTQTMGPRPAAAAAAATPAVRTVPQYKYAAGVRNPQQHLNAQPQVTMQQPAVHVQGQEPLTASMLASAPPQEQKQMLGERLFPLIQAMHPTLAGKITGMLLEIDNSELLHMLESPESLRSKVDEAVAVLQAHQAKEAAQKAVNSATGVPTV

[23] = biological target: T6, Polyadenylate-binding protein 1; test: PABP1 MLLE–PAM2 binding inhibitor potency, dose response, biochemical, fluorescence polarization, FITC-PAM2 peptide (AID 602259); type: functional; settings: read-out: IC50_Mean

**Q.** What does the source list for `CCCC/N=C/[C@]12CCC(O)CC1(O)CCC1[C@@H]2CC[C@]2(C)[C@H](C3C=CC(=O)O3)CCC12O` (some centres undefined)?
**A.** EC50 [1]: < 100 nM (active); EC50 [2]: 238 nM (active); EC50 (BJ [3]): 321 nM (active); EC50 (cells): 263 nM (active); EC50 [4]: < 100 nM (active); CC50 (Vero [5]): 960 nM (active); EC50 [6]: < 100 nM (active); EC50 (BJ [7]): 538 nM (active); IC50 [8]: > 39800 nM (not active); EC50 (BJ [9]): 3010 nM (inconclusive); EC50 [10]: 372 nM (active); EC50 [11]: 203 nM (active); IC50 [12]: > 80000 nM (inactive); IC50 (Vero [13]): < 50 nM (active); EC50 (BJ [14]): 450 nM (active); CC50 (Vero [15]): 1270 nM (active); AC50 (Paired box protein Pax-8): 2190 nM (active); AC50 [16]: 55400 nM (active)

**Q.** Which results are given for `Cc1ccc(-c2nn(CCC(=O)O)cc2/C=C\C(=O)c2ccc(Br)cc2)cc1`?
**A.** IC50 (Leucine aminopeptidase): 34000 nM (active); EC50 [17]: 4410 nM (active); EC50 (Streptococcus [18]): 25400 nM (active); EC50 (Streptokinase A): 2330 nM (active); EC50 (Streptococcus [19]): > 50000 nM (not active)

**Q.** Which EC50 [20] does the source give for `CCOc1ccc(/C=c2\sc3nc(-c4ccco4)nn3c2=O)cc1OCC` here?
**A.** Its EC50 is > 300000 nM (not active).

**Q.** And the EC50 [21]?
**A.** The EC50 was > 300000 nM (not active).

**Q.** What about the IC50 (Estrogen receptor) of the same compound?
**A.** The IC50 was > 50000 nM (not active).

**Q.** And the IC50 (NS3)?
**A.** Its IC50 is 24700 nM (not active).

**Q.** What about the IC50 [22] of the same compound?
**A.** The IC50 was > 66000 nM (inactive).

**Q.** What about the IC50 [23] of the same compound?
**A.** Its IC50 is 48800 nM (inactive).
